Results: paper PMC6934184, “Selective DNA-PKcs inhibition extends the therapeutic index of localized radiotherapy and chemotherapy” (The Journal of Clinical Investigation, 2019)

Molecular target: T1, MAP2K1 (MEK1) (Homo sapiens, UniProt Q02750)
T1 construct: purchased Thermo Fisher Scientific (Life Technologies) SelectScreen
Assay: SelectScreen Z'LYTE
Format: biochemical
Settings: ATP 100 µM
Outline: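 Percent values come from Thermo SelectScreen profiling of NU5455, combining activity and binding assays. CSF1R was run in Z'LYTE format at Km app ATP, and CAMK1 in Adapta format with ATP listed at 10.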

T1 sequence (Q02750 whole entry): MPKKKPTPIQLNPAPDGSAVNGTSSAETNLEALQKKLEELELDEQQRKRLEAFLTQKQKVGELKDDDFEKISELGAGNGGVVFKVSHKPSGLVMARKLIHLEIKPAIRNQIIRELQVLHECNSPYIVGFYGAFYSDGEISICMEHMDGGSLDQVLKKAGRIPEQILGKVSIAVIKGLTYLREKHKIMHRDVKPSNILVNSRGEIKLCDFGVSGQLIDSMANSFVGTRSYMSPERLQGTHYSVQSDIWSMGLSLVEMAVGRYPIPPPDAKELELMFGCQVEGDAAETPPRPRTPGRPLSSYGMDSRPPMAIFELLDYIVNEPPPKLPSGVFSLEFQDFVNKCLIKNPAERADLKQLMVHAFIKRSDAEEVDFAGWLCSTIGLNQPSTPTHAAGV

CN(C(=O)CN1CCOCC1)c1ccc2sc3c(-c4cccc5c(=O)cc(N6CC7CCC(C6)O7)oc45)cccc3c2c1 [NU5455]
inhibition at 1 µM: 8.8%
